Data from ChEMBL document CHEMBL1144941, “Synthesis of second-generation transition state analogues of human purine nucleoside phosphorylase” (J Med Chem, 2003).

Molecular target: T1, Purine nucleoside phosphorylase (Homo sapiens) (UniProt P00491)
T1 sequence (whole entry): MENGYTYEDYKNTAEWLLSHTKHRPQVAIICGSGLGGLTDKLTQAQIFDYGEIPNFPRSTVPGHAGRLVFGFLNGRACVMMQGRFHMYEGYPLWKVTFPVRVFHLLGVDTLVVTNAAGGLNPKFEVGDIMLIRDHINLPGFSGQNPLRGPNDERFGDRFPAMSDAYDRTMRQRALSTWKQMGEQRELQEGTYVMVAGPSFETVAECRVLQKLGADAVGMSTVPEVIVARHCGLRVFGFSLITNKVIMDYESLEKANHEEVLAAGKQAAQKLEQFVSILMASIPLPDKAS
Settings: Urine

NS: No slow onset
SMILES: OC[C@H]1CN(Cc2n[nH]c3c(O)ncnc23)CC1O (stereo partly specified)
